The test system of one assay is ileum. Kind of assay: Smooth muscle effects: CaCl2 induced contractions of ileum. Details: species or system Guinea pigs. The following applies: for inhibition at 10 µM / inhibition at 0.03 µM / inhibition at 0.1 µM / inhibition at 0.3 µM / inhibition at 1 µM / inhibition at 3 µM: Cavia porcellus, read-out: Percentage Inhibition of CaCl2 Induced Contractions. How it is done: (§1) The compounds were assessed for their ability to stabilize mast cell membranes in vitro. Mast cells treated with the compounds and un-treated mast cells were stimulated to release histamine. A reduction in histamine release by the treated cells compared to the untreated cells indicates stabilisation of the membrane. The compounds were assessed for their ability to relax smooth muscle in vitro. Intestinal smooth muscle was stimulated to contract, using calcium chloride and subsequently treated with the compounds, relaxation of the contraction was measured for each compound. The effects of the compounds were also studied on relaxation of guinea-pig tracheal muscle. In the rat paw oedema test, the drugs were administered systemically prior to inducing inflammation by the injection of carageenan below the plantar aponeurosis of the hind paw. The volume of the paw was determined both before and after treatment as an index of oedema. In the mouse ear oedema test, the drugs were administered topically prior to inducing inflammation by the topical application of arachidonic acid. The width of the ear was determined both before and after treatment as an index of oedema.
(§2) Guinea pigs (350 g approx.), of either sex, were killed in an atmosphere of saturated CO2. The abdomen was opened by a mid-line incision and the small intestine was removed. The trachea was removed and sectioned between the cartilage rings, which were then split through.
(§3) Segments of ileum (1-1.5 cm) were suspended in a high potassium, no calcium Krebs buffer (NaCl 160.44 mM); KCl 45 mM; MgCl2 0.54 mM; NaH2PO4 0.89 mM; NaH2CO3 24.9 mM; Glucose 11.1 mM). Tracheal sections were suspended in normal Krebs buffer (NaCl […]; KCl 4.7 mM; CaCl2 2.5 mM; MgCl2 0.54 mM; NaH2PO4 0.89 mM; NaHCO3 24.9 mM; Glucose 11.1 mM). The solutions were maintained at 37° C. by a jacketed organ bath and gassed with 95% O2 and 5% CO2. The tissues were anchored by thread to the bottom of the organ bath and suspended from force displacement transducers under a resting tension of 1 g approx. in the case of ileum and 4 g approx. in the case of trachea. Isotonic contractions were recorded using a MacLab/4e system in conjunction with the Chart 3.3.1 software package. Surplus tissue was stored at 4° C. in Krebs buffer, for a maximum of 48 hours.
(§4) Four segments of tissue were suspended and observed concurrently. Contractions were initiated by the addition of 25 μl of 1M CaCl2 (a final concentration of 2.5 mM). The contractions stabilized with time, 10-15 min, and could be maintained for up to 45 min. from the addition of the CaCl2. The tracheal sections were allowed to develop spontaneous resting tension over a period of 30 mins.
Stock solutions of drug were prepared at 10^−3M in 50% (v/v) DMSO. These were diluted to give; 10^−4M in 5% (v/v) DMSO and 10^−5M in 0.5% (v/v) DMSO. In cases of poor solubility the 10^−3M stock was made up in higher concentrations of DMSO. Solvent ‘blank’ solutions were prepared containing 50%, 5% and 0.5% (v/v) DMSO (or as appropriate). […] A second cumulative dose-response assay was carried out using DMSO ‘blank’ solutions only.
(§5) Each drug was tested, in duplicate, on at least three different animals (n=3). The results were expressed as percentage inhibition of the CaCl2 induced contraction in the case of ideal tissue and percentage relaxation in the case of tracheal tissue, for each tissue, at each concentration of drug in DMSO. The effect of DMSO, for each tissue at each concentration, was subtracted from the effect of the drug in DMSO, to give the effect of the drug alone. A log dose vs. response curve was plotted for each drug using the mean and the standard error of the mean for the cumulated results.

For a further assay, the system named is trachea. Kind of assay: Smooth muscle effects: spontaneous tone of tracheal sections. More on the design: species or system Guinea pigs. The following applies: guinea pig trachea, percentage relaxation; for inhibition at 3 µM / inhibition at 10 µM: Cavia porcellus. How it is done: as §1, §2, §3, §4
Stock solutions of drug were prepared at 10^−3M in 50% (v/v) DMSO. These were diluted to give; 10^−4M in 5% (v/v) DMSO and 10^−5M in 0.5% (v/v) DMSO. In cases of poor solubility the 10^−3M stock was made up in higher concentrations of DMSO. Solvent ‘blank’ solutions were prepared containing 50%, 5% and 0.5% (v/v) DMSO (or as appropriate). A cumulative dose-response assay was carried out in the range 5×10^−8M to 10^−5M. A second cumulative dose-response assay was carried out using DMSO ‘blank’ solutions only.
as §5

The next assay concerns mast cells. Kind of assay: Histamine release assay (compound 48/80 stimulated mast cells). It is filed as cell-based, Wistar rats. The following applies: 2 × 10^−5 M, rat peritoneal mast cells; for inhibition at 20 µM: Rattus norvegicus, Mast cell, read-out: Percentage Inhibition of Histamine Release. The protocol:
as §1
The buffered salt solution (BSS) was prepared in advance (NaCl 137 mM; KCl 2.7 mM; MgCl2 1.0 mM; CaCl2 0.5 mM, NaH2PO4 0.4 mM; Glucose 5.6 mM; HEPES 10 mM). This was dispensed into test tubes and heated to 37° C., each test tube contained 4.5 ml BSS. The solvent blank was supplemented with 0.5% (v/v) dimethyl sulphoxide (DMSO) or 0.5% (v/v) distilled water (dH2O). The two positive controls were supplemented with 0.5% (v/v) dH2O/2×10^−5M disodium cromoglycate (DSCG) and 0.5% (v/v) DMSO/2×10^−5M DSCG. The test compounds' incubation tubes contained 2×10^−5M test compound/0.5% (v/v) DMSO. The basal release, maximum release and total histamine content incubation tubes contained no additions.
Female Wistar rats (200-300 g) were killed in an atmosphere of saturated CO2. Pre-warmed BSS (10 ml) was injected i.p. and the abdomen was massaged for 3 min. The BSS, with suspended mast cells and other cells, was aspirated following a mid-line incision. The aspirate was centrifuged for 5 min at 400 g and the supernatant removed. The cells were re-suspended in BSS, at 4° C., and centrifuged as before the cells were washed in this manner a total of three times. Following the final wash, the pelleted cells were stored at 4° C., for use as soon as possible.
The cells were re-suspended in 7 ml BSS. From this, 0.5 ml aliquots were transferred to each of the incubation tubes. After 10 min at 37° C. with gentle agitation, Compound 48/80 was added to a final concentration of […], in order to stimulate histamine release. The cell stimulation was stopped after 2 min by the addition of 0.5 ml ice cold BSS, the incubation tubes were transferred to an ice bath. The cell suspensions were centrifuged for 5 min at 400 g. The “total histamine content” tube was placed at 100° C. for 2 min prior to centrifugation. The supernatants were retained for histamine assay.
To 2 ml of supernatant from each tube was added 0.4 ml of 1M NaOH and 0.1 ml oPT (1% (w/v) in methanol). This was incubated at room temperature for 4 min. The reaction was stopped by the addition of 0.2 ml of 3M HCl. The supernatant from each incubation tube was assayed in duplicate and run simultaneously with a standard curve in the range 0-1000 ng/ml. The presence of the fluorescent product of the reaction was measured using a Shimazu RF-1501 spectrofluorophotometer set at λex=360 nm, λem=450 nm.
Each drug was tested on at least five animals (n=5). The results were expressed as a percentage of maximum, compound 48/80 induced, histamine release in the solvent blank sample. Each drug was compared to DSCG on the same tissues. The basal histamine release in untreated cells was noted, expressed as a percentage of the total histamine content of the cells in suspension. […]

For the next assay, the system named is mouse ear oedema. In words: Mouse ear oedema model (arachidonic acid induced). The following applies: 300 μg per ear topically 30 min prior to 400 μg arachidonic acid; 1 hour after arachidonic acid; n=4. It is filed as in vivo, Laca mice. The protocol: as §1
The mouse ear oedema model was performed using Laca mice (25-35 g), of either sex. The animals were sedated with fentanyl/fluanisone (Hypnorm, Janssen). One ear was treated by the topical application of one of a range of test compounds, indomethacin or dexamethasone (all at 300 μg ear in acetone) drug. After 30 min, oedema was induced by the topical application of arachidonic acid (10 μl at […] in acetone). The thickness of each ear was measured, both before and 60 min after the induction of oedema, using a micrometer screw gauge. Ear oedema was calculated by comparing the ear width before and after induction of oedema and expressed as percentage normal.
Responses of the mouse ear to single doses of a range of compounds compared to the response to indomethacin and dexamethasone, each at a dose of 300 μg per ear administered topically 30 min prior to administration of 400 μg of arachidonic acid. Values are expressed as the percentage increase in ear thickness 1 hour after administration of arachidonic acid (all n=4, solvent controls (n=8)).

Where [1] appears, read: 3 × 10^−6 M, guinea pig ileum, DMSO effect subtracted.
Setting [2] is: 10^−5 M, guinea pig ileum, DMSO effect subtracted.

Where two headings read alike, the source gives them in different places.

`C=CCN(C1CC(=O)c2ccccc21)[C@H]1CCc2ccccc21` (some centres unmarked) [5C6 BS]: the “Percentage Inhibition of CaCl2 Induced Contractions” value is 13.66% with ileum (setting [1]) and 31.47% in the assay on ileum (setting [2]). For the same compound, the “Percentage Inhibition of Spontaneous Tone” value in the assay on trachea (3 × 10^−6 M) was determined as 2.03%; with trachea (10^−5 M), 4.09%. The “Percentage Inhibition of Histamine Release” value with mast cells is reported as 80.29%.
With `C=CCN(C1CCc2ccccc21)C1CC(=O)c2ccccc21` (centres unmarked) [5C6 TR], the inhibition at 3 µM in the assay on trachea (3 × 10^−6 M) came to 1.5%. For the same compound, the inhibition at 10 µM in the assay with trachea (10^−5 M) stood at 4.97%. In the assay on mast cells, the inhibition at 20 µM worked out at 80%.
Turning to `C=CCN(C1CC(=O)c2ccccc21)[C@H]1CCc2ccccc21` (some centres unmarked) [5C6 TS], the “Percentage Inhibition of CaCl2 Induced Contractions” value in the assay with ileum (setting [1]) was found to be 5.29%. The inhibition at 10 µM with ileum (setting [2]) came out at 19.4%; with trachea (10^−5 M), 2.71%. The inhibition at 3 µM with trachea (3 × 10^−6 M) is 1.63%. Besides, the inhibition at 20 µM with mast cells came out at 75.2%.
Regarding `C=CCN(C1CCc2ccccc21)C1CC(=O)c2ccccc21` (centres unmarked) [Compound 5C6, 3-(N-prop-2-enyl-N-1-indanylamino)-indan-1-one], in the assay on ileum, the inhibition at 0.03 µM is -1%, the inhibition at 0.1 µM amounted to 0.02%, the inhibition at 0.3 µM was 0.36% and the inhibition at 1 µM amounted to 1.31%. In the assay with ileum, the inhibition at 3 µM is 8.84% and the inhibition at 10 µM is 20.9%. In the assay with mouse ear oedema, the “percentage increase in ear thickness (Mean %)” value (“percentage increase … (Mean %)” for short) amounted to 52.0%. In the assay with mast cells, the “Percentage Inhibition of Histamine Release” value is listed as 77.77%.
As to `CC(=O)N(C1CCc2ccccc21)C1CC(=O)c2ccccc21` (centres unmarked) [Compound 5C9, N-1-Indanyl-N-3-indan-1-onylethanamide], the inhibition at 3 µM in the assay on ileum (setting [1]) was determined as 9.06%; in the assay on trachea (3 × 10^−6 M) it was 2.64%. For the same compound, the inhibition at 10 µM worked out at 18.3% in the assay on ileum (setting [2]) and 2.38% in the assay on trachea (10^−5 M). Further, the inhibition at 20 µM with mast cells was determined as 14.3%.
With `CN(C1Cc2ccccc2C1)C1CC(=O)c2ccccc21` (centres unmarked) [Compound 6C6, 3-(N-methyl-N-2-indanylamino)-indan-1-one], the inhibition at 3 µM in the assay with ileum (setting [1]) stood at 12.6%. For the same compound, the inhibition at 0.3 µM with ileum (3 × 10^−7 M, guinea pig ileum, DMSO effect subtracted) was determined as 4.64%. Besides, the inhibition at 0.03 µM with ileum (3 × 10^−8 M, guinea pig ileum, DMSO effect subtracted) was determined as 0.15%. Further, in the assay on ileum (setting [2]), the inhibition at 10 µM was 22.9%. Also, the inhibition at 1 µM in the assay on ileum (10^−6 M, guinea pig ileum, DMSO effect subtracted) was 9.01%. The inhibition at 0.1 µM with ileum (10^−7 M, guinea pig ileum, DMSO effect subtracted) stood at 2.75%. Further, in the assay with mouse ear oedema, the “percentage increase … (Mean %)” value worked out at 73.0%. The inhibition at 20 µM in the assay on mast cells amounted to 68%.
For the compound `C=CCN(C1Cc2ccccc2C1)C1CC(=O)c2ccccc21` (centres unmarked) [Compound 6C7, 3-(N-prop-2-enyl-N-2-indanylamino)-indan-1-one], in the assay with ileum, the inhibition at 0.03 µM was determined as 1.16%, the inhibition at 0.1 µM was 3.15%, the inhibition at 0.3 µM was 4.52% and the inhibition at 1 µM was 5.36%. In the assay with ileum, the inhibition at 3 µM was determined as 10.7% and the inhibition at 10 µM came out at 21.8%. The “percentage increase … (Mean %)” value in the assay on mouse ear oedema was determined as 71.5%. In addition, in the assay on mast cells, the inhibition at 20 µM is 89.5%.
Regarding `Cc1ccc(S(=O)(=O)N(C2Cc3ccccc3C2)C2CC(=O)c3ccccc32)cc1` (centres unmarked) [Compound 6C10, N-2-Indanyl-N-3-indan-1-onyl-p-toluenesulfonamide], the inhibition at 3 µM in the assay on trachea (3 × 10^−6 M) was -0.75%. Further, in the assay with trachea (10^−5 M), the inhibition at 10 µM was found to be 0.5%. The inhibition at 20 µM in the assay with mast cells worked out at 51.1%.
For the compound `C[C@@H]1C[C@H]2[C@@H]3CCC4=CC(=O)C=C[C@]4(C)[C@@]3(F)[C@@H](O)C[C@]2(C)[C@@]1(O)C(=O)CO` [Dexamethasone, reference compound], in the assay on mouse ear oedema, the “percentage increase … (Mean %)” value amounted to 37.9%.
In the case of `COc1ccc2c(c1)c(CC(=O)O)c(C)n2C(=O)c1ccc(Cl)cc1` [Indomethacin, reference compound], in the assay on mouse ear oedema, the “percentage increase … (Mean %)” value is 39.6%.

The values above are taken from patent publication US6423752B1, “Indane dimer compounds with smooth muscle relaxing and/or mast cell stabilizing and/or anti-inflammatory activity” (Venantius Limited, priority 1995, dated 2002).
